Here are results for 16 molecules from patent publication US20150087627A1, “COMBINATION OF KINASE INHIBITORS AND USES THEREOF” (Intellikine LLC, priority 2011, published 2015).

SMILES strings stand for the structures. Read-outs that look alike come from different tables or passages of the source.

What all share (assay type): biochemical
One test addresses T1, PI3K δ (Homo sapiens, UniProt O00329).
T1 construct: purchased Upstate / Millipore Corporation
The test is described as follows: PI 3-Kinase (human) HTRF assay, PI3K δ. Particulars: read-out: PI3K δ IC50.

The target of another test is T2, PI3K α (p110α/p85α) (Homo sapiens, UniProt P42336).
T2 construct: purchased Upstate / Millipore Corporation
The test is described as follows: PI 3-Kinase (human) HTRF assay, PI3K α. Particulars: read-out: PI3K α IC50. On the technique in general: In TR-FRET formats the signal depends on donor and acceptor labels being close together.

In the next test the target is T3, PI3K β (p110β/p85α) (Homo sapiens, UniProt P42338).
T3 construct: purchased Upstate / Millipore Corporation
The test is described as follows: PI 3-Kinase (human) HTRF assay, PI3K β. To be noted: read-out: PI3K β IC50.

Another test addresses T4, PI3K γ (p110γ) (Homo sapiens, UniProt P48736).
T4 construct: purchased Upstate / Millipore Corporation
The experiment in a line: PI 3-Kinase (human) HTRF assay, PI3K γ.

T1 sequence (O00329 whole entry): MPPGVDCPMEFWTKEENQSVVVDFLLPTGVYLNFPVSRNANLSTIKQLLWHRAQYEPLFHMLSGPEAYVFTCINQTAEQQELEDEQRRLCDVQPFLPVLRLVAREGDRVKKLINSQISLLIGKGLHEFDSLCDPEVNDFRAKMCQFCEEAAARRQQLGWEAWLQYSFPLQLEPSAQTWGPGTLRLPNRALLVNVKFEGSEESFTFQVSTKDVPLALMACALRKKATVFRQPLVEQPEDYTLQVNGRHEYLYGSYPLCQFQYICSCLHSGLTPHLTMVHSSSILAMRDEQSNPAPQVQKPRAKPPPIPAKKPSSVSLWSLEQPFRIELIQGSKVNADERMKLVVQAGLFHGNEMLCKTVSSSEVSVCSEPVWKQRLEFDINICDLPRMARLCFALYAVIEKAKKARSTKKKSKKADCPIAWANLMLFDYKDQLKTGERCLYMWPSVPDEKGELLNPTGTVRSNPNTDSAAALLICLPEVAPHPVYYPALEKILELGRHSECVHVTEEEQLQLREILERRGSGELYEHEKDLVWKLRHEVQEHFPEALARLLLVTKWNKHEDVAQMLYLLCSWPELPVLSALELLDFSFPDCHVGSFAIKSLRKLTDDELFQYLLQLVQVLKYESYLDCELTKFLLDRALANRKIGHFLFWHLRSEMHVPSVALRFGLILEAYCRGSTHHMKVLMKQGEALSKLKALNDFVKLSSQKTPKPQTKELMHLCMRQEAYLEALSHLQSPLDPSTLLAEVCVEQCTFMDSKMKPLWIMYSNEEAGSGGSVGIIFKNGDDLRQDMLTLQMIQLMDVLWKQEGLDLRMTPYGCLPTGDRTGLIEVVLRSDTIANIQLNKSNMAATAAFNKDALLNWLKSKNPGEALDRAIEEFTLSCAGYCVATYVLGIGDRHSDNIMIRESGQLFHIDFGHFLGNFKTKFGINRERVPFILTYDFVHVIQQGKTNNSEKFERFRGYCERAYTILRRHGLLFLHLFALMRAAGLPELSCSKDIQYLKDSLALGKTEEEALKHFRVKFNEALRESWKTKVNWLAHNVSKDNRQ
T1 sequence (P27986 whole entry partner): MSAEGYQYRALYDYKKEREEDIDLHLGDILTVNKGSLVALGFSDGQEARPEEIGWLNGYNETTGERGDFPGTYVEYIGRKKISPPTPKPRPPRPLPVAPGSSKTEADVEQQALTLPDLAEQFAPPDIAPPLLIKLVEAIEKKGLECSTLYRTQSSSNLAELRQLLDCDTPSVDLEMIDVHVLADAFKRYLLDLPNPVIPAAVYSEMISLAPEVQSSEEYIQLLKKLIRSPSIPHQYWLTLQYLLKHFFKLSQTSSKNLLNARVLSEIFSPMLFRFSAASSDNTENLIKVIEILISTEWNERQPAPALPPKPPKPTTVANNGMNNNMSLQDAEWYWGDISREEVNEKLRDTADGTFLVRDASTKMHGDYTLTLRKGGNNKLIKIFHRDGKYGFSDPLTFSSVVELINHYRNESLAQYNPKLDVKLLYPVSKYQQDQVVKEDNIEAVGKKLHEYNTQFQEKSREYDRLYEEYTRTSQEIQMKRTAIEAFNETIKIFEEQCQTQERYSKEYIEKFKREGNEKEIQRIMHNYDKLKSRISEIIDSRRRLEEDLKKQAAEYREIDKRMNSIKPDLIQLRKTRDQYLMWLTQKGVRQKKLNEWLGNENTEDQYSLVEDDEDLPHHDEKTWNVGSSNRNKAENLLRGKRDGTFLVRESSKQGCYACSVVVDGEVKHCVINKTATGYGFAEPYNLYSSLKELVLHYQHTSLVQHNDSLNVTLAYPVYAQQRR
T4 sequence (P48736 whole entry): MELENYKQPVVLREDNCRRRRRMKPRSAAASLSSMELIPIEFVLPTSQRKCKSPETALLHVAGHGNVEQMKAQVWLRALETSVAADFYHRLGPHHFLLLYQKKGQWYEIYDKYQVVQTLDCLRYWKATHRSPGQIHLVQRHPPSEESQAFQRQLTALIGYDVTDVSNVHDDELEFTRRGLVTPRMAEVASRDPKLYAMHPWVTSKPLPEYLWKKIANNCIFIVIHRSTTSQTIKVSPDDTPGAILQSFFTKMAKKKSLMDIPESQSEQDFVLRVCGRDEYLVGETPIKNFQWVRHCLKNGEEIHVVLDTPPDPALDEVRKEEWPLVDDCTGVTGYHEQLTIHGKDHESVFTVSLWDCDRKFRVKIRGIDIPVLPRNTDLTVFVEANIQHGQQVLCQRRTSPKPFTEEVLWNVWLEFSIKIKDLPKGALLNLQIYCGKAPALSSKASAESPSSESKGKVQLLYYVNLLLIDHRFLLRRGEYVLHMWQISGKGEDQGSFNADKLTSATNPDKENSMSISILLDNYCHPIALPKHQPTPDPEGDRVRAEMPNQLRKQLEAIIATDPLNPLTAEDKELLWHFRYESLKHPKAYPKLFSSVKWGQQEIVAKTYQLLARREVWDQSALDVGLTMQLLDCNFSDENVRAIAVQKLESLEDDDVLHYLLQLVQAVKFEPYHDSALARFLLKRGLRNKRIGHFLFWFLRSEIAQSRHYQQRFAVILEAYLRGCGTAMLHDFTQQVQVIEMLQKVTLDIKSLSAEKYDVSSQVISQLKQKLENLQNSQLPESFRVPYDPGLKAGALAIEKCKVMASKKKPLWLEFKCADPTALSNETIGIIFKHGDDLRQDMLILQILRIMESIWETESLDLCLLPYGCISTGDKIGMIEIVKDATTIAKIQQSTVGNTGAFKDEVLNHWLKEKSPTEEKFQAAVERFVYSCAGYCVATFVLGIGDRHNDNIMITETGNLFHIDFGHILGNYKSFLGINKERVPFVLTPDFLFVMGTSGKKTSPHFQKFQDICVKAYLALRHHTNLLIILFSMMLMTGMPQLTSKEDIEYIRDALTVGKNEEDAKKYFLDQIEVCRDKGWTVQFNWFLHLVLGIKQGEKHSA
T3 sequence (P42338 whole entry): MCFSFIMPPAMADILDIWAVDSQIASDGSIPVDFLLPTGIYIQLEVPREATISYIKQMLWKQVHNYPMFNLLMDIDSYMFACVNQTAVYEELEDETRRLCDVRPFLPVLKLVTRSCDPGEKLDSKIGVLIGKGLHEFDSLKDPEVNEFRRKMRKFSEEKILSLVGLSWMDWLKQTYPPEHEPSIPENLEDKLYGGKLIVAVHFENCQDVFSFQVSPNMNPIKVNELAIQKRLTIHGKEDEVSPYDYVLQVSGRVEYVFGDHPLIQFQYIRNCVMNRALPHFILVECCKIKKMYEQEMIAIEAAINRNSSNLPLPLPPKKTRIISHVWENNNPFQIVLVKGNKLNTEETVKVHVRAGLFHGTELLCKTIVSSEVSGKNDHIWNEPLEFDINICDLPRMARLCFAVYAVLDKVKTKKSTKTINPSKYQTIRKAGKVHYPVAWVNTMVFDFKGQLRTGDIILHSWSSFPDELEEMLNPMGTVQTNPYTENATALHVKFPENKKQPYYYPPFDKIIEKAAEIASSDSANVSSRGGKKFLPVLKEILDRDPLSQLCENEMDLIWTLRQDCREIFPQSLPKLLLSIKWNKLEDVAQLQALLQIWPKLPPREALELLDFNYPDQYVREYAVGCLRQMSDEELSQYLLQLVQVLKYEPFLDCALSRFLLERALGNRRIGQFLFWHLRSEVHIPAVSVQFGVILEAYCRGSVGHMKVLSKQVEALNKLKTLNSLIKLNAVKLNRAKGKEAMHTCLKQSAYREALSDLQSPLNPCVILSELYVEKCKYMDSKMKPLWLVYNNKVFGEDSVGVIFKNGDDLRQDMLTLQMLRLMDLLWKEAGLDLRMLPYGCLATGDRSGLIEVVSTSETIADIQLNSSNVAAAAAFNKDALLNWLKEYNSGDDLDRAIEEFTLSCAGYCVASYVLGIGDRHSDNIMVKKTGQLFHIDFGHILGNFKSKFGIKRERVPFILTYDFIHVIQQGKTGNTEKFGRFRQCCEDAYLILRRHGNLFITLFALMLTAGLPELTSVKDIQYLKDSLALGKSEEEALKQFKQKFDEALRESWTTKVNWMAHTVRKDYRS
T3 sequence (P27986 whole entry partner): as the sequence (P27986 whole entry partner) above
T2 sequence (P42336 whole entry): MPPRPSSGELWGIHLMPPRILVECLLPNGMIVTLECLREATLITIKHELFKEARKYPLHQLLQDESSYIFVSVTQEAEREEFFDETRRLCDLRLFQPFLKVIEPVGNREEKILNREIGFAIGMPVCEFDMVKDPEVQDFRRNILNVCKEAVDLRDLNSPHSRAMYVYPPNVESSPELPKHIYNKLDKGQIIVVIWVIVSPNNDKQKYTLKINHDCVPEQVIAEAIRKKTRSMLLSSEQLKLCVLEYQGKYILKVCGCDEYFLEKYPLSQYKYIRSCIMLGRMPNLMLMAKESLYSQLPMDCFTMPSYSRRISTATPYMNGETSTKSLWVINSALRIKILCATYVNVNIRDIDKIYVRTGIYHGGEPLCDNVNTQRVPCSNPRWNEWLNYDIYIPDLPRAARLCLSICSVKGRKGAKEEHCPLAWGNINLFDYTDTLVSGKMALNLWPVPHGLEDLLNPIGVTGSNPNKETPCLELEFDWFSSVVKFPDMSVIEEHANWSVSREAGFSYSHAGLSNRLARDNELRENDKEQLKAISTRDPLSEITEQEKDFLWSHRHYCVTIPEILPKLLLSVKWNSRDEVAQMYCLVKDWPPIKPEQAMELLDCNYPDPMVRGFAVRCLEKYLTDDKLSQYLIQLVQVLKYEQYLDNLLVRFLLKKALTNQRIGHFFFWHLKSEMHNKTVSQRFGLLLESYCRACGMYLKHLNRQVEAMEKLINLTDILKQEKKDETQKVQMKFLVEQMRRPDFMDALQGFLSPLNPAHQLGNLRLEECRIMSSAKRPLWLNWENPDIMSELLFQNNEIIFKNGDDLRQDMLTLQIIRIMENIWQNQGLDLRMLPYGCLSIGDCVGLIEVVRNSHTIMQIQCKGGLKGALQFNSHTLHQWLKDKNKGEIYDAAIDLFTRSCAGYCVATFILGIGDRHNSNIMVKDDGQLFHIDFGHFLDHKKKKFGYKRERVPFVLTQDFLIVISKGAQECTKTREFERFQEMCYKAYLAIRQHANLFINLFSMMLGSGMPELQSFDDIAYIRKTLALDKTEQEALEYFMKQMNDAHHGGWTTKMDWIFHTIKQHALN
T2 sequence (P27986 whole entry partner): as the sequence (P27986 whole entry partner) above

Usually IC50 stands for the concentration that gives 50% inhibition. Consider `Nc1nc2cc(-c3ccc4ncc(NCCN5CCCC5)nc4c3)ccc2o1` [Compound 219], for which the IC50 at PI3K δ was below 1 µM; at PI3K α (p110α/p85α), below 1 µM; on PI3K β (p110β/p85α), below 1 µM; on PI3K γ (p110γ) (read-out: PI3K γ IC50) it was below 1000 nM.
On to `Cc1cc(-c2ccc3oc(N)nc3c2)cc2c(C(=O)N3CCCC3)cnn12` [Compound 368], for which the half-maximal inhibitory concentration (IC50) is below 1 µM at PI3K δ, below 0.1 µM at PI3K α (p110α/p85α), below 10 µM on PI3K β (p110β/p85α) and below 1000 nM at PI3K γ (p110γ) (read-out: PI3K γ IC50).
Regarding `Nc1nc2cc(-c3ccc4ncc(N5CC[C@H](N6CCOCC6)C5)nc4c3)ccc2o1` [Compound 375], the IC50 was below 1 µM on PI3K δ, below 1 µM on PI3K α (p110α/p85α), below 10 µM at PI3K β (p110β/p85α) and below 1000 nM at PI3K γ (p110γ) (read-out: PI3K γ IC50).
Consider `Nc1nc2cc(-c3ccc4ncn(CCO)c(=O)c4c3)ccc2o1` [Compound 184], for which the 50% inhibitory concentration (IC50) on PI3K δ is above 10 µM; at PI3K α (p110α/p85α), below 0.1 µM; on PI3K β (p110β/p85α), below 10 µM; on PI3K γ (p110γ) (read-out: PI3K γ IC50), below 1000 nM.
For `Nc1nc2cc(-c3ccc4ncc(N5CC(n6ccnc6)C5)nc4c3)ccc2o1` [Compound 319], in that order: below 10 µM, below 0.1 µM, below 1 µM and below 1000 nM.
With `Nc1nc2cc(-c3ccc4sc(N)nc4c3)cc(F)c2o1` [Compound 437], the IC50 is above 10 µM at PI3K δ, below 10 µM at PI3K α (p110α/p85α), below 1 µM on PI3K β (p110β/p85α) and below 1000 nM at PI3K γ (p110γ) (read-out: PI3K γ IC50).
`CC(C)N1CCN(C(=O)C2CN(c3cnc4ccc(-c5ccc6oc(N)nc6c5)cc4n3)C2)CC1` [Compound 285]: the IC50 was below 1 µM on PI3K δ, below 0.1 µM on PI3K α (p110α/p85α), below 10 µM on PI3K β (p110β/p85α) and below 1000 nM on PI3K γ (p110γ) (read-out: PI3K γ IC50).
For `Nc1nc2cc(-c3ccc4ncc(C(=O)N5C6CCC5COC6)n4c3)ccc2o1` [Compound 480], the IC50 was below 10 µM at PI3K δ, below 0.1 µM at PI3K α (p110α/p85α), above 10 µM at PI3K β (p110β/p85α) and below 1000 nM against PI3K γ (p110γ) (PI3K γ IC50 (nM)).
Turning to `COc1ncc(-c2ccc3ncn(C4CCN(C)CC4)c(=O)c3c2)cc1NS(C)(=O)=O` [Compound 525], the IC50 on PI3K δ is below 0.1 µM; at PI3K α (p110α/p85α), below 0.1 µM; at PI3K β (p110β/p85α), below 1 µM; at PI3K γ (p110γ) (read-out: PI3K γ IC50), below 10000 nM.
On to `Nc1nc2cc(-c3ccc4ncc(N5CCNCC5=O)nc4c3)ccc2o1` [Compound 389], for which the IC50 is above 10 µM on PI3K δ, below 1 µM at PI3K α (p110α/p85α), above 10 µM on PI3K β (p110β/p85α) and below 10000 nM on PI3K γ (p110γ) (read-out: PI3K γ IC50).
Regarding `Nc1nc2cc(-c3ccc4sc(N)nc4c3)ccc2o1` [Compound 248], the IC50 was below 10 µM at PI3K δ, below 10 µM at PI3K α (p110α/p85α), below 1 µM on PI3K β (p110β/p85α) and below 1000 nM at PI3K γ (p110γ) (read-out: PI3K γ IC50).
Consider `Nc1nc2cc(-c3ccc4ncn(C(=O)N5CCOCC5)c4c3)ccc2o1` [Compound 317], for which the concentration for half-maximal inhibition (IC50) at PI3K δ was above 10 µM; on PI3K α (p110α/p85α), above 10 µM; at PI3K β (p110β/p85α), above 10 µM; at PI3K γ (p110γ) (read-out: PI3K γ IC50), above 10000 nM.
On to `Nc1nc2cc(-c3ccc4ncc(C(=O)N5CCC(N6CCC(F)(F)C6)C5)n4c3)ccc2o1` (stereo not shown) [Compound 500], for which the half-inhibitory concentration (IC50) was below 10 µM at PI3K δ, below 1 µM at PI3K α (p110α/p85α), above 10 µM on PI3K β (p110β/p85α) and below 10000 nM on PI3K γ (p110γ) (read-out: PI3K γ IC50).
As for `Nc1nc2cc(-c3ccc4ncc(C(=O)N5CC(N6CCC(F)(F)C6)C5)n4c3)ccc2o1` [Compound 502], the IC50 at PI3K δ is below 10 µM; on PI3K α (p110α/p85α), below 0.1 µM; on PI3K β (p110β/p85α), above 10 µM; on PI3K γ (p110γ) (read-out: PI3K γ IC50), below 1000 nM.
As to `Nc1nc2cc(-c3ccc4ncc(C(=O)N5CCCC5)n4c3)ccc2o1` [Compound 186], the IC50 at PI3K δ is below 1 µM; at PI3K α (p110α/p85α) it was below 0.1 µM; on PI3K β (p110β/p85α), below 10 µM; at PI3K γ (p110γ) (read-out: PI3K γ IC50), below 100 nM.
As for `Nc1nc2cc(-c3ccn4ncc(C(=O)N5CCOCC5)c4c3)ccc2o1` [Compound 347], the IC50 on PI3K δ was above 10 µM; on PI3K α (p110α/p85α), below 1 µM; at PI3K β (p110β/p85α), below 10 µM; on PI3K γ (p110γ) (read-out: PI3K γ IC50), below 1000 nM.
